{"source": "patent US20050032866A1", "about": "“The use of 5ht4 receptor antagonists in the prophylaxis or treatment of certain cardiovascular conditions” (priority 2000, published 2005)", "key": {"5-HT2C": {"target": "5-HT2C (Homo sapiens, UniProt P28335)", "sequence (P28335 33-458, species assumed)": "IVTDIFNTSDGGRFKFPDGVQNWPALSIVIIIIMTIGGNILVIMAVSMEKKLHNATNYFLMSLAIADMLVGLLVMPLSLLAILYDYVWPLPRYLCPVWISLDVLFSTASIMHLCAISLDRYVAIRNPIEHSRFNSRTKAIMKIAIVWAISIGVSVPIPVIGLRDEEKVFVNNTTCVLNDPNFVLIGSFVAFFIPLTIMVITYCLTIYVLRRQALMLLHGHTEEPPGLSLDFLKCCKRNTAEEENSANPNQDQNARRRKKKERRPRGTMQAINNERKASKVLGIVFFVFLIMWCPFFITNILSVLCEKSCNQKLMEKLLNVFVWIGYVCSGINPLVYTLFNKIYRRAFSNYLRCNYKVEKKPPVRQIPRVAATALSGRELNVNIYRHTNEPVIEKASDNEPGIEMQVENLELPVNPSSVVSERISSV", "assay": "receptor binding studies, 5-HT2C", "conditions": "read-out: pKd 5-HT2C (converted)"}, "Opiate mu": {"target": "Opiate mu (Homo sapiens, UniProt P35372)", "sequence (P35372 whole entry)": "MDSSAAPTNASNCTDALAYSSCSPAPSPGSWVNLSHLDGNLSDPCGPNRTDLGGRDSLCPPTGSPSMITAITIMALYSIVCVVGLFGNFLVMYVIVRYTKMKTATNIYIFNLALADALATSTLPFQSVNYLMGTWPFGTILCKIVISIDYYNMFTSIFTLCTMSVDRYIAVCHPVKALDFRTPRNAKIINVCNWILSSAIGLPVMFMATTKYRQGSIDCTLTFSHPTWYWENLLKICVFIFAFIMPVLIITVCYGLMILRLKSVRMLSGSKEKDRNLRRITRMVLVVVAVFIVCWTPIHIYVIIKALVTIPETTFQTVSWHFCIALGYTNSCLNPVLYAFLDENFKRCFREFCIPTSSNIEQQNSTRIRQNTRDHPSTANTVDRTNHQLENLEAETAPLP", "assay": "receptor binding studies, Opiate mu", "conditions": "read-out: pKi Opiate mu (converted)"}, "Opiate kappa": {"target": "Opiate kappa (Homo sapiens, UniProt P41145)", "sequence (P41145 whole entry)": "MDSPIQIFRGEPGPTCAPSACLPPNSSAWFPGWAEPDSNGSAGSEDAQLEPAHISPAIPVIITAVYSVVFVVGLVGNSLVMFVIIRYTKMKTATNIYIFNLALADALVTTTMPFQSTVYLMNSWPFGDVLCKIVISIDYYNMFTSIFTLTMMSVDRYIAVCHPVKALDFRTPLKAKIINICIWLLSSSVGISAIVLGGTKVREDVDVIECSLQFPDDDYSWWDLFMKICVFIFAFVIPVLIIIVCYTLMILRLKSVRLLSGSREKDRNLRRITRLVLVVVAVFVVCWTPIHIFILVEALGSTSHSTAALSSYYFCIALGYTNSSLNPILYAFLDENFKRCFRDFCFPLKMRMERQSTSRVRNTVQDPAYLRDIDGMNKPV", "assay": "receptor binding studies, Opiate kappa", "conditions": "read-out: pKi Opiate kappa (converted)"}, "BDZ": {"target": "BDZ", "assay": "receptor binding studies, BDZ"}, "D2": {"target": "D2 (Homo sapiens, UniProt P14416)", "assay": "receptor binding studies, D2", "conditions": "read-out: pKd D2 (converted)"}, "5-HT4 receptor [1]": {"test_system": "5-HT4 receptor", "assay": "5-HT-induced motility in dog Heidenhain gastric pouch", "type": "in vivo", "description": "Compounds are tested for inhibition in the in vivo method described in “Stimulation of canine motility by BRL 24924, a new gastric prokinetic agent”, Bermudez et al, J. Gastrointestinal Motility, 1990, 2(4), 281-286.\nDogs with previously prepared Heidenhain gastric pouches are fasted overnight."}, "5-HT2B receptor": {"target": "T1, 5-HT2B receptor (Rattus norvegicus, UniProt P30994)", "T1 construct": "from tissue; host or cells: rat stomach fundus", "assay": "functional studies on the rat stomach fundus", "type": "cell-based"}, "Alpha1": {"target": "Alpha1", "assay": "receptor binding studies, Alpha1"}, "5-HT4 receptor [2]": {"target": "T2, 5-HT4 receptor (Rattus norvegicus, UniProt Q62758)", "T2 construct": "The inner smooth muscle tube of the muscularis mucosae is isolated and mounted for isometric tension recording; from tissue; host or cells: rat oesophageal tunica muscularis mucosae", "T2 sequence (Q62758 whole entry)": "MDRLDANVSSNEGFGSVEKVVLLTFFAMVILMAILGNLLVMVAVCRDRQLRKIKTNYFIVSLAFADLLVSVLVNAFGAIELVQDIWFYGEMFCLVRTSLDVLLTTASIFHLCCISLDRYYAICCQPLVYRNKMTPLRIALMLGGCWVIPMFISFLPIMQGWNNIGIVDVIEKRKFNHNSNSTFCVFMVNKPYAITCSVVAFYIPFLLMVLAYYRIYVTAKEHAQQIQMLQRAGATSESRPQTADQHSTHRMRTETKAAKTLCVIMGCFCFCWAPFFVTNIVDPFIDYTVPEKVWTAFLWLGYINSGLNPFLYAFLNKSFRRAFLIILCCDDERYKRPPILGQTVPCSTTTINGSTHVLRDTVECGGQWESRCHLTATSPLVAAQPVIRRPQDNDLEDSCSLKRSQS", "assay": "rat oesophageal tunica muscularis mucosae, relaxation to 5-HT", "type": "cell-based", "from_the_text": "Rat oesophageal tunica muscularis mucosae is set up according to Baxter et. al. Naunyn-Schmiedeberg's Arch."}, "[3]": {"test_system": "social interaction in rats", "assay": "social interaction test in rats (anxiolytic activity)", "type": "in vivo, rat", "description": "Rats (male, Sprague Dawleys, Charles River, 250-300 g) are housed in groups of eight in a holding room for 5 days. They are then housed singly in a room adjacent to the experimental room for 4 days prior to the experimental day. On the experimental day rats are administered vehicle, test compound or a benzodiazepine anxiolytic, chlordiazepoxide, p.o. in pairs (n=8-16), at 15 minute intervals beginning at 10.00 a.m. […] The box is made of white perspex 54 cm×37 cm×26 cm with a transparent perspex front side and no lid. The floor is divided up into 24 squares and the box is brightly lit (115 lux). Active social interactive behaviours (grooming, sniffing, climbing over or under, following, biting, mounting and boxing) are scored blind for the next 15 min by remote video monitoring to give total interaction scores. The number of squares crossed by each rat is also scored and summed. After the end of each test the box is carefully wiped."}, "5-HT4 receptor [4]": {"target": "T3, 5-HT4 receptor (Cavia porcellus, UniProt O70528)", "T3 construct": "Longitudinal muscle-myenteric plexus preparations, approximately 3 cm long, are obtained from the distal colon region; from tissue; host or cells: guinea-pig distal colon longitudinal muscle-myenteric plexus", "T3 sequence (O70528 whole entry)": "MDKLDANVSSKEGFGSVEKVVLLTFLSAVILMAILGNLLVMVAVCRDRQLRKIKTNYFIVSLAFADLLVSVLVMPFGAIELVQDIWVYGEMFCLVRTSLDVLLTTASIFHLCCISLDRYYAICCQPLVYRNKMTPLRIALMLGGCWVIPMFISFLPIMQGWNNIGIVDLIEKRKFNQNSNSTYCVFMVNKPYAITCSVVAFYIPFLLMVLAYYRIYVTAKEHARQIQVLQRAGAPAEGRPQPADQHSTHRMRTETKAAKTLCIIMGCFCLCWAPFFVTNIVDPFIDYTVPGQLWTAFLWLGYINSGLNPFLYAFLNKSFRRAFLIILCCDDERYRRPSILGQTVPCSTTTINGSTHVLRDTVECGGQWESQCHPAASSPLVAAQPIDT", "assay": "guinea pig distal colon longitudinal muscle-myenteric plexus, 5-HT-evoked contraction", "type": "cell-based", "description": "Male guinea-pigs, weighing 250-400 g are used.\n(§1) In some experiments, this tissue was dosed alternately with an approximately equi-effective concentration of the nicotine receptor stimulant, dimethylphenylpiperazinium (DMPP)."}, "H1": {"target": "H1 (Homo sapiens, UniProt P35367)", "sequence (P35367 whole entry)": "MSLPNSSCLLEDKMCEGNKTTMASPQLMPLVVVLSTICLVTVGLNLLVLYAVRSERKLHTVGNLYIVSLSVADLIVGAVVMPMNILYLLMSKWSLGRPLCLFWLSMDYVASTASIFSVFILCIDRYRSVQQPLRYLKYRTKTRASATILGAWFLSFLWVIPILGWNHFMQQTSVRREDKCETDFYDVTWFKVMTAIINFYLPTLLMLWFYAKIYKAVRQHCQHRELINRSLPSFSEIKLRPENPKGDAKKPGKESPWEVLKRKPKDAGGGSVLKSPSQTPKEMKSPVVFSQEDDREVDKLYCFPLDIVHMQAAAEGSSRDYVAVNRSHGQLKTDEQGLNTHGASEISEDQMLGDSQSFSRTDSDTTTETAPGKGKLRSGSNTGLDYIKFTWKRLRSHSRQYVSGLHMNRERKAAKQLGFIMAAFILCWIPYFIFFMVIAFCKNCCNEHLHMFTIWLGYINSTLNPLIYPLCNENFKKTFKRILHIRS", "assay": "receptor binding studies, H1", "conditions": "read-out: pKd H1 (converted)"}, "5-HT1D": {"target": "5-HT1D (Homo sapiens, UniProt P28221)", "sequence (P28221 whole entry, species assumed)": "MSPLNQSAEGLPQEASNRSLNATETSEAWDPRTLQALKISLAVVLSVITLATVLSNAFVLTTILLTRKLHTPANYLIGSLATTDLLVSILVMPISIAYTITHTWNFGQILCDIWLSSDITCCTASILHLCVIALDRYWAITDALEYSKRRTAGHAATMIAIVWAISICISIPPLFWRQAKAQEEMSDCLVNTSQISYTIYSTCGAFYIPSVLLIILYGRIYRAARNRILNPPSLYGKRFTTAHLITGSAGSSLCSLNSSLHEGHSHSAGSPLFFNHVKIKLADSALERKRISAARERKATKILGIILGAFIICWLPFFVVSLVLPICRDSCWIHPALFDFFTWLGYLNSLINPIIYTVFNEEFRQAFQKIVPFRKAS", "assay": "receptor binding studies, 5-HT1D", "conditions": "read-out: pKd 5-HT1D (converted)"}, "GABA": {"target": "GABA", "assay": "receptor binding studies, GABA"}, "[5]": {"test_system": "DMPP-evoked contractions (nicotinic receptor agonist)", "assay": "guinea pig colon, DMPP-evoked contractions", "type": "cell-based", "conditions": "10^−5M", "description": "as §1"}, "5-HT1E": {"target": "5-HT1E (Homo sapiens, UniProt P28566)", "sequence (P28566 whole entry, species assumed)": "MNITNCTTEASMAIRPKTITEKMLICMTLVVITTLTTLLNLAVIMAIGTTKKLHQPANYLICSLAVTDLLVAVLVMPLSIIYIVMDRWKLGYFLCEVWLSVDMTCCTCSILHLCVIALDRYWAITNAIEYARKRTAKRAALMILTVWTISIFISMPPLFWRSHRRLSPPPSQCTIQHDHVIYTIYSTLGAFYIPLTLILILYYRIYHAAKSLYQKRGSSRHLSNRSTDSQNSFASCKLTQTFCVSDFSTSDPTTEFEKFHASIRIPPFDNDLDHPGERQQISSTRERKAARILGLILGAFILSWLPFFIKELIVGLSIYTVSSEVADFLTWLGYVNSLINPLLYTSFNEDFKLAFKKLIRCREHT", "assay": "receptor binding studies, 5-HT1E", "conditions": "read-out: pKd 5-HT1E (converted)"}, "5-HT4 receptors": {"test_system": "5-HT4 receptors", "assay": "antagonism of 5-HT-evoked tachycardia in anaesthetised piglets", "type": "in vivo, piglet", "description": "All experiments were in 2-5 day old piglets in which the vagi were sectioned."}, "Opiate delta": {"target": "Opiate delta (Homo sapiens, UniProt P41143)", "sequence (P41143 whole entry)": "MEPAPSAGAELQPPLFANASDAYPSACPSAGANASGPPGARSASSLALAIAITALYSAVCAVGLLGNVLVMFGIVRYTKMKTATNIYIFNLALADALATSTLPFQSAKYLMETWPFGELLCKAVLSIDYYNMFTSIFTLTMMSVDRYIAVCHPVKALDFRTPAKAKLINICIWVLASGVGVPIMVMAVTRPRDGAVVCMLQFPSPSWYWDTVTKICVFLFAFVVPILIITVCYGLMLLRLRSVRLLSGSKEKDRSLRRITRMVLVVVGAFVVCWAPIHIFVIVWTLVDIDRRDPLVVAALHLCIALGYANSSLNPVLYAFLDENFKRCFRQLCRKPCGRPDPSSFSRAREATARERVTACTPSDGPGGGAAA", "assay": "receptor binding studies, Opiate delta", "conditions": "read-out: pKi Opiate delta (converted)"}, "5-HT2A": {"target": "5-HT2A (Homo sapiens, UniProt P28223)", "sequence (P28223 whole entry, species assumed)": "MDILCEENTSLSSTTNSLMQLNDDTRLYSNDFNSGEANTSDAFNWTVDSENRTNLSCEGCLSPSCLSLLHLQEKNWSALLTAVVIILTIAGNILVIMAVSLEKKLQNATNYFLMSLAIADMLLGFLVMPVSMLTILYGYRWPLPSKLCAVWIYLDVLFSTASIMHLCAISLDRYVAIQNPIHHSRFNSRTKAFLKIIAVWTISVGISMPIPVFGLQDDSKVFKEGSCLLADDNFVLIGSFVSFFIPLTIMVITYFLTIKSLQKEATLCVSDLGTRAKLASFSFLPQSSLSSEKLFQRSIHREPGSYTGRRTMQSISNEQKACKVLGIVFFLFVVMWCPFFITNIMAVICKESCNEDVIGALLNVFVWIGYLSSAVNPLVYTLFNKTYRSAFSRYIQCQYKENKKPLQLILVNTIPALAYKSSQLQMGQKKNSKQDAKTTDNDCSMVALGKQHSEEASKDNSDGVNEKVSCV", "assay": "receptor binding studies, 5-HT2A", "conditions": "read-out: pKd 5-HT2A (converted)"}, "5-HT3": {"target": "5-HT3 (Homo sapiens, UniProt P46098)", "sequence (P46098 24-478, species assumed)": "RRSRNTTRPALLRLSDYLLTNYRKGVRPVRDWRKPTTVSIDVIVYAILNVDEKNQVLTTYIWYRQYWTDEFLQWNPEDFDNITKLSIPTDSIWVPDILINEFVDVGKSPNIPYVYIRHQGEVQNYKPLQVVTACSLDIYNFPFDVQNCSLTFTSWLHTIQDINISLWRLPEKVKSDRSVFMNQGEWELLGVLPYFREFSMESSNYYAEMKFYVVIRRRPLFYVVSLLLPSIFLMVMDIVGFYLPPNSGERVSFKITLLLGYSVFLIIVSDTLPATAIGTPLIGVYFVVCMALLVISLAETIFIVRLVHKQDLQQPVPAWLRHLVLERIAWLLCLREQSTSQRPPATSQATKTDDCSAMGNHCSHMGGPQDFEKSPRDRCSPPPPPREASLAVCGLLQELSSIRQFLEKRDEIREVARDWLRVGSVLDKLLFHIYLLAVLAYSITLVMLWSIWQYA", "assay": "receptor binding studies, 5-HT3", "conditions": "read-out: pKd 5-HT3 (converted)"}, "5-HT1A": {"target": "5-HT1A (Homo sapiens, UniProt P08908)", "assay": "receptor binding studies, 5-HT1A", "conditions": "read-out: pKd 5-HT1A (converted)"}, "D3": {"target": "D3 (Homo sapiens, UniProt P35462)", "sequence (P35462 whole entry)": "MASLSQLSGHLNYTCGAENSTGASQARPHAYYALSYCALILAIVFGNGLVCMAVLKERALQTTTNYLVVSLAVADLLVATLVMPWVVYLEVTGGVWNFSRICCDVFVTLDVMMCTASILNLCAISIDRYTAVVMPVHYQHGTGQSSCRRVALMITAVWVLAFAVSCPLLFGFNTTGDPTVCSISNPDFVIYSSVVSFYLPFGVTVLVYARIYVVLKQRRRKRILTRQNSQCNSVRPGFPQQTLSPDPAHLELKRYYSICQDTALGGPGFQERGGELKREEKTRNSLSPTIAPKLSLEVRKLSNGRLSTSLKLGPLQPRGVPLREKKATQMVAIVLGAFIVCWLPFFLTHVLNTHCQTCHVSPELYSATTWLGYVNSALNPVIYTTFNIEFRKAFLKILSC", "assay": "receptor binding studies, D3", "conditions": "read-out: pKd D3 (converted)"}}, "data": [{"smiles": "CCCCN1CCC(CNC(=O)c2c3n(c4ccccc24)CCCO3)CC1", "note": "[SB-207266-A, N-[(1-^nbutyl-4-piperidinyl)methyl]-3,4-dihydro-2H-[1,3]oxazino[3,2-a]indole-10-carboxamide]", "values": [{"measurement": "Kd", "setting": "5-HT2C", "value": 2690, "unit": "nM"}, {"measurement": "Ki", "setting": "Opiate mu", "value": "< 1000", "unit": "nM"}, {"measurement": "Ki", "setting": "Opiate kappa", "value": "< 1000", "unit": "nM"}, {"measurement": "pKd BDZ", "setting": "BDZ", "value": ">5.00"}, {"measurement": "Kd", "setting": "D2", "value": 2340, "unit": "nM"}, {"measurement": "effect on basal motility", "setting": "5-HT4 receptor [1]; any dose", "value": "no effect"}, {"measurement": "ID50, antagonism of the contractile response to 5-HT", "setting": "5-HT4 receptor [1]; iv", "value": "1.3 (Confidence Limits 0.1-14.0) ug.kg^−1"}, {"measurement": "ID50, antagonism of the contractile response to 5-HT", "setting": "5-HT4 receptor [1]; po", "value": "9.6 (CL 0.7-128) ug.kg^−1"}, {"measurement": "affinity for the 5-HT2B receptor", "setting": "5-HT2B receptor", "value": 7.47}, {"measurement": "pKd Alpha1", "setting": "Alpha1", "value": "<5.52"}, {"measurement": "type of antagonism of 5-HT response", "setting": "5-HT4 receptor [2]", "value": "non-surmountable antagonist"}, {"measurement": "total interaction scores", "setting": "[3]; 0.01, 1, 10 mg.kg^−1, 1 h after administration", "value": "Significantly increased"}, {"measurement": "locomotion during the test", "setting": "[3]; rat, in vivo", "value": "not accompanied by any alteration in locomotion"}, {"measurement": "contraction evoked by the 5-HT4 receptor partial agonist BIMU 1", "setting": "5-HT4 receptor [4]", "value": "reduced the maximum response to BIMU 1"}, {"measurement": "maximum response to 5-HT", "setting": "5-HT4 receptor [4]; 3×10^−8 M and above", "value": "reduced in a concentration-dependent manner"}, {"measurement": "time for recovery of responses to 5-HT upon washout", "setting": "5-HT4 receptor [4]; highest concentrations (which reduce maximum 5-HT-evoked contractions)", "value": "≤ 90", "unit": "min"}, {"measurement": "Kd", "setting": "H1", "value": 3.98, "unit": "µM"}, {"measurement": "Kd", "setting": "5-HT1D", "value": "> 10", "unit": "µM"}, {"measurement": "pKd GABA", "setting": "GABA", "value": ">5.00"}, {"measurement": "DMPP-evoked contractions", "setting": "[5]", "value": "unaffected"}, {"measurement": "Kd", "setting": "5-HT1E", "value": "> 10", "unit": "µM"}, {"measurement": "antagonism of 5-HT-evoked tachycardia", "setting": "5-HT4 receptors; 0.1, 0.3 or 1.0 ugkg^−1 intravenously, n=2 each", "value": "antagonised the 5-HT-evoked tachycardia in a dose-dependent manner"}, {"measurement": "recovery from antagonism", "setting": "5-HT4 receptors; 0.3, 1.0 ugkg^−1 i.v., over the duration of the experiment", "value": "incomplete"}, {"measurement": "Ki", "setting": "Opiate delta", "value": "< 1000", "unit": "nM"}, {"measurement": "Kd", "setting": "5-HT2A", "value": 1290, "unit": "nM"}, {"measurement": "Kd", "setting": "5-HT3", "value": 1150, "unit": "nM"}, {"measurement": "Kd", "setting": "5-HT1A", "value": "> 10", "unit": "µM"}, {"measurement": "Kd", "setting": "D3", "value": 2950, "unit": "nM"}]}]}
